Marks after values point to notes of the source that are not given here.
What was measured:
[1] = system: abdominal constrictions in writhing test model; test: Mouse writhing test (acetic acid i.p.); type: in vivo, mice; settings: for No. of constrictions: 10 min observation
Procedure: In investigating the analgesic, anti-inflammatory and antipyretic effects of MASA methods widely used in evaluation of NSAIDs were employed. Mongrel white laboratory mice and Wistar rats were used in experiments. Animals were kept in groups of 7-8 in adequate cages in climatized rooms at 22±1° C., relative humidity 60±5% and 12/12-hour light/darkness cycle with free access to feed and water.
Aqueous solutions of test substances were prepared ex tempore. In each experimental series a control group was used that received an identical volume of water p.o.
Nociceptive reaction was evaluated by chemical irritation method—writhing test (Charaborty A et al, Indian J of Pharmacology 2004; 36(3):148-150). Animals received i.p. 0.25 ml of 0.75% aqueous acetic acid solution: After the injection animals were placed separately in special boxes and observed for 10 minutes. The number of abdominal constrictions was registered. Analgesic activity was manifested by reduction of the number of abdominal constrictions in the 10 minutes period. Test substances were introduced 30 min before the irritating agent. The level of analgesia was expressed as analgesic index calculated as follows: A=(Cc−Ct)/Cc·100%, where A—Analgesic index Cc—number of contractions in control group, Ct—number of contractions in the test group.

carrageneen paw oedema = test: Carrageneen oedema, preventive mode; type: in vivo, rats; settings: preventive 6 times, 4 h
Procedure: The […] oedema was investigated by established method ([…], Patol Fiziol Eksp Ter, 2002(2):24-7 (Rus) on 42 rats with body mass of 178-220 g: […] The prevention index was calculated as indicated in previous section.

CRP = CRP levels in blood, carrageneen inflammation model; type: in vivo, rats; settings: for CRP: 5 h after carrageneen; for CRP increase %: carrageneen control = 100
Procedure: To evaluate the intensity of the inflammation process the CRP levels were determined by standard method on analyzer ? INTEGRA 400+ ? at the end of experiment (5 hours after injection of carrageneen).

[2] = system: adjuvant arthritis induced by Freund's adjuvant; test: Adjuvant arthritis: paw volume and ankle joint; type: in vivo, Wistar rats; settings: for Prevention %, paw volume Day 14 / Prevention %, paw volume Day 28: vs AdA
Source text: Our experiments were scheduled to test the influence of MASA on the progress of adjuvant arthritis in comparison with MD and ASA. […] Each standard cage housed 7 rats with unlimited access to drinking water and granulated standard feed. […] All efforts were made to minimize animal suffering and to reduce the number of animals used. A modified standard procedure for inducting and evaluating the progress of chronic adjuvant arthritis was used (Bellavite P, Ortolani R, Conforti A, Immunology and Homeopathy. 3. Experimental Studies on Animal Models, Advance Access Publication 2.05, 2006, 171-186). […] The solutions of test substances were prepared ex tempore. […] Test solutions were introduced to animal p.o. by catheter into the stomach. […] The effects of test substances were evaluated using the following criteria: The oedema, i.e. the volume of hind paw was measured by oncometer. The percentage of prevention (inhibition of oedema) was calculated according to formula: P(%)=(Vc−Vt)/Vc×100, where Vc—paw volume in control group Vt—paw volume in test group P—Prevention in % (inhibition of oedema).

[3] = system: WBC, CRP, CIC in adjuvant arthritis; test: Adjuvant arthritis: WBC, CRP and CIC in blood; type: in vivo, Wistar rats
Procedure: Our experiments were scheduled to test the influence of MASA on the progress of adjuvant arthritis in comparison with MD and ASA. Experiments were conducted on Wistar rats with starting body mass of 153-185 g. Rats were kept in climatized rooms at 22±1° C., relative humidity 60±5% and 12/12-hour light/darkness cycle. Each standard cage housed 7 rats with unlimited access to drinking water and granulated standard feed. All experiments were carried out in accordance with the European Community Council's Directive of 24 Nov. 1986 (86/609/EEC) relative to experimental animal care. All efforts were made to minimize animal suffering and to reduce the number of animals used.
A modified standard procedure for inducting and evaluating the progress of chronic adjuvant arthritis was used (Bellavite P, Ortolani R, Conforti A, Immunology and Homeopathy. 3. Experimental Studies on Animal Models, Advance Access Publication 2.05, 2006, 171-186). Rats were injected into the hind foot pad 0.1 ml and intraperitonealy with 0.05 ml of complete Freund's adjuvant solution.
Hematological indices were determined by standard methods on hematological analyzer ? PENTRA 120 ? , CRP was determined on ? INTEGRA 400+ ? . Levels of CIC in blood serum were determined spectrometrically, using […].

rat ear skin temperature = test: Ear skin temperature rise caused by NA, p.o. administration; type: in vivo, Wistar rats; settings: MASA 150 mg/kg p.o. alone
Procedure: Male Wistar rats (280-330 g) were used. Animals were held in groups of 6 in climatized rooms at 22±1° C., relative humidity 60±5%, and 12/12-hour light/dark cycle with free access to drinking water and feed (R3—Lactamin AB, Sweden). For registration of changes in skin temperature of intact rats contactless temperature recording method was used (Papaliodis D et al, Br J Pharmacol 2008; 153:1382-1387). Temperature measurements were performed with a hand-held infrared thermometer (Model Proscan 510, TFA-Dostman). Animals were habituated to handling and to the infrared probe for 3 days before use. Temperature readings from the dorsal side of each ear were recorded without anaesthesia at beginning and during experiment. The ear temperature was measured every 5 min. for a period of up to 60 min. The animals were returned to their cages between measurements. NA, MD and MASA were dissolved in saline and pH was corrected immediately before usage. LA (MK 0524, Cayman Chemicals) was first dissolved in DMSO and then freshly diluted with 0.9% NaCl, on each day of the experiment. The rate of NA and LA combination was based on Summary of Product Characteristics for Tredaptive™ (nicotinic acid/laropiprant) 1000 mg/20 mg modified-release tablets.
9.2.3. Investigation of the Effect of MASA/NA and MD/NA Combination on Skin Temperature at Simultaneous or 45 Min Advance p.o. Administration

## CC(=O)Oc1ccccc1C(=O)O [ASA, acetylsalicylic acid]
[1]; 50 mg/kg p.o.
  Analgesic index: 7.1
  No. of constrictions: 5.75 ± 1.32***^$$$
[1]; 50 mg/kg p.o. 30 min before acetic acid
  Animals with positive reaction/total number: 6/8
Carrageneen paw oedema; 50 mg/kg p.o.
  Reduction in % (oedema): 70%
  Volume of paw after injection of carrageneen: 1.55 ± 0.04 mL
CRP; 100 mg/kg
  CRP: 0.20 ± 0.018 mg/L
  CRP increase %: 50%
[2]; 10 mg/kg daily p.o.
  Dimensions of ankle joint on Day 14: 7.2 ± 0.12 mm
  Dimensions of ankle joint on Day 28: 6.8 ± 0.14 mm
  Paw volume on Day 14: 2.53 ± 0.10 mL
  Paw volume on Day 28: 2.08 ± 0.12 mL
  Prevention %, paw volume Day 14: −7%
  Prevention %, paw volume Day 28: 7%
[2]; 100 mg/kg daily p.o.
  Dimensions of ankle joint on Day 14: 6.9 ± 0.15 mm
  Dimensions of ankle joint on Day 28: 7.1 ± 0.16 mm
  Paw volume on Day 14: 2.35 ± 0.14 mL
  Paw volume on Day 28: 1.52 ± 0.07 mL
  Prevention %, paw volume Day 14: 3%
  Prevention %, paw volume Day 28: 32%
[3]; 10 mg/kg daily p.o.
  CIC units, Day 14: 10.8 ± 0.74 units
  CIC units, Day 28: 8.2 ± 0.53 units
  CRP, Day 14: 0.26 ± 0.01 mg/L
  CRP, Day 28: 0.19 ± 0.01 mg/L
[3]; 100 mg/kg daily p.o.
  CIC units, Day 14: 15.0 ± 1.23 units
  CIC units, Day 28: 14.4 ± 1.66 units
  CRP, Day 14: 0.29 ± 0.01 mg/L
  CRP, Day 28: 0.18 ± 0.02 mg/L

## CC(=O)Oc1ccccc1C(=O)[O-].C[N+](C)(C)NCCC(=O)O [MASA, 3-(trimethylammonioamino)propanoate Acetylsalicylic Acid Addition Salt]
[1]; 75 mg/kg p.o.
  Analgesic index: 4.5
  No. of constrictions: 12.13 ± 0.61**^$$
[1]; 75 mg/kg p.o. 30 min before acetic acid
  Animals with positive reaction/total number: 8/8
[1]; 150 mg/kg p.o.
  Analgesic index: 5.2
  No. of constrictions: 10.63 ± 1.10**^$$
[1]; 150 mg/kg p.o. 30 min before acetic acid
  Animals with positive reaction/total number: 7/8
[1]; 300 mg/kg p.o.
  Analgesic index: 7.3
  No. of constrictions: 6.00 ± 1.39***^$$$
[1]; 300 mg/kg p.o. 30 min before acetic acid
  Animals with positive reaction/total number: 5/8
Carrageneen paw oedema; 150 mg/kg p.o.
  Reduction in % (oedema): 94%
  Volume of paw after injection of carrageneen: 1.40 ± 0.09**^$ ml
Carrageneen paw oedema; 300 mg/kg p.o.
  Reduction in % (oedema): 86%
  Volume of paw after injection of carrageneen: 1.41 ± 0.04**^$ ml
CRP; 150 mg/kg
  CRP: 0.19 ± 0.009^#$ mg/l
  CRP increase %: 33%
CRP; 300 mg/kg
  CRP: 0.21 ± 0.014 mg/L
  CRP increase %: 67%
[2]; 25 mg/kg daily p.o.
  Dimensions of ankle joint on Day 14: 7.0 ± 0.14 mm
  Dimensions of ankle joint on Day 28: 6.7 ± 0.15 mm
  Paw volume on Day 14: 2.20 ± 0.21 mL
  Paw volume on Day 28: 1.32 ± 0.12^#&&$ ml
  Prevention %, paw volume Day 14: 9%
  Prevention %, paw volume Day 28: 41%
[2]; 100 mg/kg daily p.o.
  Dimensions of ankle joint on Day 14: 7.0 ± 0.13 mm
  Dimensions of ankle joint on Day 28: 6.6 ± 0.16^#@$ mm
  Paw volume on Day 14: 2.07 ± 0.17^& ml
  Paw volume on Day 28: 1.22 ± 0.08^#&&&@$ ml
  Prevention %, paw volume Day 14: 15%
  Prevention %, paw volume Day 28: 45%
[2]; 200 mg/kg daily p.o.
  Dimensions of ankle joint on Day 14: 6.8 ± 0.10^#& mm
  Dimensions of ankle joint on Day 28: 6.9 ± 0.11 mm
  Paw volume on Day 14: 2.13 ± 0.11^& ml
  Paw volume on Day 28: 1.7 ± 0.09^#&@ ml
  Prevention %, paw volume Day 14: 12%
  Prevention %, paw volume Day 28: 24%
[3]; 25 mg/kg daily p.o.
  CIC units, Day 14: 12.6 ± 0.68 units
  CIC units, Day 28: 11.8 ± 1.53 units
  CRP, Day 14: 0.29 ± 0.02 mg/L
  CRP, Day 28: 0.15 ± 0.02^##& mg/l
  Leucocytes (WBC), Day 14: 14.72 ± 1.63^# 10^3/mm^3
  Leucocytes (WBC), Day 28: 16.77 ± 1.78 10^3/mm^3
[3]; 100 mg/kg daily p.o.
  CIC units, Day 14: 20.8 ± 2.99 units
  CIC units, Day 28: 5.8 ± 0.74^##&@@$ units
  CRP, Day 14: 0.29 ± 0.02 mg/L
  CRP, Day 28: 0.16 ± 0.01^##& mg/l
  Leucocytes (WBC), Day 14: 14.13 ± 0.53^## 10^3/mm^3
  Leucocytes (WBC), Day 28: 15.52 ± 0.57^## 10^3/mm^3
[3]; 200 mg/kg daily p.o.
  CIC units, Day 14: 21.6 ± 3.26 units
  CIC units, Day 28: 6.2 ± 1.02^##@ units
  CRP, Day 14: 0.25 ± 0.01*^#@ mg/l
  CRP, Day 28: 0.19 ± 0.01 mg/L
  Leucocytes (WBC), Day 14: 15.42 ± 1.40^# 10^3/mm^3
  Leucocytes (WBC), Day 28: 14.35 ± 0.84^## 10^3/mm^3
Rat ear skin temperature
  Temp. 15 min: 29.9 ± 0.33^$$ ° C.
  Temp. 30 min: 29.5 ± 0.35^$$$ ° C.
  Temp. 45 min: 29.6 ± 0.39^$$ ° C.
Rat ear skin temperature; NA alone = 100
  Max incr. %: 6%

Reference: patent publication US8889902B2, “Acetylsalicylic acid salts” (priority 2009, dated 2014)
